Assays:
[1] = Photo-induced degradation of triazabutadienes under hand-held UV lamp, followed by NMR; assay type: physicochemical
Experimental: (i) The reaction was monitored by comparing starting materials (A, C, D, and E) with product (B); (ii) Peak absorption and extinction coefficients for all of the compounds were excitable by the UV source used; (iii) Time-dependent conversion of compounds was measured by NMR integration.
Referring to FIG. 5A, in some embodiments, triazabutadiene molecules of the present invention may readily photoisomerize to a more reactive Z-form. As an example, an aqueous solution of Compound A was irradiated with a simple hand-held UV lamp (“365 nm,” measured at 350 nm). Consumption of Compound A was observed after only a few hours. […] Without wishing to limit the present invention to any theory or mechanism, it was hypothesized that if a two-electron process were happening, then Compound A-Z would be more basic than Compound A-E. A 1.0 N NaOH solution of Compound A was treated with light. […] Benzene diazonium ions also absorb UV light to expel nitrogen and generate a benzene radical. In order to resolve if the initial cleavage undergoes a radical homolytic mechanism versus a two-electron heterolytic mechanism, a trapping experiment using resorcinol was conducted. (Resorcinol was chosen because it can serve a dual role as a radical scavenger and a trap benzene diazonium species that could be formed.) An excess of resorcinol was added to a pH 9 borate-buffered solution of Compound A and the mixture was irradiated with light. The known azobenzene, Sudan Orange G, was formed in a 65% yield (versus 4% for the non-irradiated reaction). Derivatives of Compound A were made to examine the effects of electronic perturbations on the light-induced degradation. […] A buffered borate solution was chosen due to its alkaline nature and lack of complicating signals in the NMR experiment. Compounds C-E all have absorption spectra that are well within the range of the UV lamp (see FIG. 5A(ii)).

[2] = Stability of non-irradiated (dark) aqueous solutions; assay type: physicochemical
Text: (§1) Referring to FIG. 5A, in some embodiments, triazabutadiene molecules of the present invention may readily photoisomerize to a more reactive Z-form. As an example, an aqueous solution of Compound A was irradiated with a simple hand-held UV lamp (“365 nm,” measured at 350 nm). Consumption of Compound A was observed after only a few hours. […] Without wishing to limit the present invention to any theory or mechanism, it was hypothesized that if a two-electron process were happening, then Compound A-Z would be more basic than Compound A-E. A 1.0 N NaOH solution of Compound A was treated with light. […] Benzene diazonium ions also absorb UV light to expel nitrogen and generate a benzene radical. In order to resolve if the initial cleavage undergoes a radical homolytic mechanism versus a two-electron heterolytic mechanism, a trapping experiment using resorcinol was conducted. (Resorcinol was chosen because it can serve a dual role as a radical scavenger and a trap benzene diazonium species that could be formed.) An excess of resorcinol was added to a pH 9 borate-buffered solution of Compound A and the mixture was irradiated with light. The known azobenzene, Sudan Orange G, was formed in a 65% yield (versus 4% for the non-irradiated reaction). Derivatives of Compound A were made to examine the effects of electronic perturbations on the light-induced degradation. […]

[3] = Resorcinol trapping of diazonium species (Sudan Orange G formation); assay type: physicochemical; conditions: excess resorcinol, pH 9 borate buffer
Text: as §1

[4] = In situ real-time pH measurement upon UV irradiation; assay type: physicochemical; conditions: water, pH adjusted to 9 before irradiation, over several minutes
Experimental: In an effort to examine the rate order for the pH-increasing reaction more carefully, in situ, real-time pH measurements were acquired. Compound A was dissolved in water and the pH of the solution was adjusted to 9 such that it would not form Compound B in the absence of light. […] This spike was not at all consistent with the model of the pH increase being solely linked to the concentration of Compound B being generated.
A sample was irradiated and then the light was turned off once the pH of the solution started to increase noticeably. […] The experiment was repeated with increasing times of irradiation, and a saw-tooth pattern was obtained. The process was not completely reversible due to some degradation to Compound B. Indeed, triazabutadiene Compound A can serve a dual role of being a photo-masked base (see FIG. 4B(i)), and a base whose intrinsic functional group properties are altered photochemically (FIG. 4B(iii)).
Referring to FIG. 5A(iii), Compound C and Compound D were examined in an effort to find a base that was reversibly basic but also more resistant to degradation.

[5] = Stability in DMSO with excess acetic acid, with or without light; assay type: physicochemical
Experimental: (§2) It is possible that Compound A may be useful as a photo-catalytic base in the context of organic reactions. […] As noted previously, Compound A is quite stable to an excess of acetic acid in DMSO, showing only 12% degradation over 14 hours at room temperature. […] To confirm that this was due to the acid, a solution of Compound A (in pure DMSO) was irradiated. After four hours of constant irradiation in acid-free DMSO, an E:Z ratio of nearly 50:50 was observed.

[6] = E/Z photoisomerization and thermal Z to E reversion; assay type: physicochemical; conditions: MeOD
[7] = Solubility observations; assay type: physicochemical; conditions: organic solvents
Experimental: as §2
As another non-limiting example, an azide (e.g., NHS-azide) to N-heterocyclic carbene (NHC) route may be used to synthesize triazabutadiene molecules (e.g., see FIG. 6C). For example, as shown in Compound 4 of FIG. 6D, a triazabutadiene molecule was synthesized from dimethyl imidazole derived NHC and phenyl azide. […] This change was confirmed to coincide with diazonium formation by trapping the reactive species with resorcinol to provide known diazo dye Sudan Orange G. When the triazabutadiene molecule (Compound 4) was treated with the much less acidic acetic acid, the same product was obtained.
To render the triazabutadiene water-soluble, methyl imidazole was alkylated with propane sultone to provide the Zwitterionic NHC precursor Compound 5a (see FIG. 6E). […] Compound 6a was highly colored, so its pH dependence was studied using UV/vis. The reactions were not only pH-, but also scan-frequency dependent. Upon finding this, the stability of Compound 6a was studied in D2O in the dark using NMR. Even in the dark it was unstable, but not in the diazonium-forming way. Both Compound 6b and a more hindered mesityl (Mes) substituted Compound 6c (see FIG. 6E) were synthesized to stabilize what was initially considered to be a rearrangement pathway that could be blocked by steric repulsion. […] Dissolution in 0.1 N NaOH rendered all compounds stable (e.g., no detectable degradation after 24 hours in the dark).
To further examine the reactivity of this class of compounds, variants Compound 6d and Compound 6e were synthesized (see FIG. 6G). It was hypothesized that the p-methoxy and p-nitro analogs (Compound 6d and Compound 6e, respectively) would display different reactivity profiles. […] After collecting the precipitate and dissolving it in deuterated methanol, no change was observed from a sample of Compound 6e that had never been exposed to a buffered solution. […] It is possible that: 1) that the sodium salt of Compound 6e is much less soluble than the potassium salt; or 2) with different solvating ions present the sulfonate interacts with the electron-poor N2 nitrogen atom of the triazabutadiene to break conjugation and form an insoluble complex (this is backed by a reversible color change of the starting rust-red solid, to the light yellow precipitate). […]

[8] = target: Bovine serum albumin (BSA) (Bos taurus, UniProt P02769); assay: BSA labeling (gel fluorescence) after acidification; assay type: biochemical; conditions: 10 μM BSA, 10 μM compound after acidification at pH 2 for 0-60 min, then pH 8.8, 0° C., 1 hour
Experimental: To 10 μM solution of BSA in 100 mM Tris-Cl pH 8.8 was added 10 μM of Compound 53 after acidification (100 mM Tris-Cl pH 2) for 0, 1, 10, 30, or 60 minutes. […] The reaction was then allowed to proceed at 0° C. for 1 hour prior to loading onto a gel.
Bovine serum albumin (BSA) was used as a model protein to help assess the ability of Compound 53 to label proteins. BSA is known to bind to small molecules. Compound 53 was subjected to acid for varying times and then added to a solution of BSA at a pH sufficient to minimize background release of the diazonium ion (FIG. 11C). […] It is possible that this indicates a cleavage of the azobenzene linkage; however, the fluorescence could be quenched by reduction at several locations. To assess whether the standard azobenzene reduction is operative with these compounds, the resulting amino phenol may be oxidized and the ortho-iminoquinone may be trapped via established Diels-Alder chemistry. In some embodiments, molecules of the present invention can help distinguish between tyrosine and histidine modifications.

[9] = not pH dependent in the physiological range; cited from earlier work

Bovine serum albumin (BSA), sequence (P02769 25-607): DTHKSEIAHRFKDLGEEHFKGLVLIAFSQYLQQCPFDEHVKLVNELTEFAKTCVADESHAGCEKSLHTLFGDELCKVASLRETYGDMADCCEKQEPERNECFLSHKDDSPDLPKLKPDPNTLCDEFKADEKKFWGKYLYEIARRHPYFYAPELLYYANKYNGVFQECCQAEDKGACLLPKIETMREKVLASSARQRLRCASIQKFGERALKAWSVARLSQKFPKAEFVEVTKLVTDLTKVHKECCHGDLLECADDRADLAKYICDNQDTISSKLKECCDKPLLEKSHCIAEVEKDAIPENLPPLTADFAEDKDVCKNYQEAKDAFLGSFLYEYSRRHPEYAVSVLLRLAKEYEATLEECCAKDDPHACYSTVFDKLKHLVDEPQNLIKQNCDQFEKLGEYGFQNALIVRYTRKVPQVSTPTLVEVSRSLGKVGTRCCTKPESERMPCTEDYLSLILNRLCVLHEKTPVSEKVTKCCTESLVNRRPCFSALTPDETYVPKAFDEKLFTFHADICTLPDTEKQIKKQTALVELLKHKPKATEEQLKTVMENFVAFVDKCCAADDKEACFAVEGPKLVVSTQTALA

**Q.** Which “Consumption of starting material under constant irradiation at pH 14” value ([1]; 1.0 N NaOH, pH 14, 20 hours constant irradiation) does the source give for `Cc1cc(C)c(-n2ccn(CCCS(=O)(=O)[O-])c2=NN=Nc2ccccc2)c(C)c1.[K+]` [Compound A] here?
**A.** near complete consumption

**Q.** What about the “Consumption on UV irradiation (time)” value ([1]; aqueous solution, hand-held UV lamp (365 nm, measured at 350 nm)) of the same compound?
**A.** a few hours

**Q.** And the “Stability at pH 14 in the dark” value ([2]; 1.0 N NaOH solution, pH 14, dark)?
**A.** stable for weeks

**Q.** And the “Stability of non-irradiated reaction” value ([2]; aqueous solution, similar conditions, no irradiation)?
**A.** stable for days

**Q.** And the “Sudan Orange G yield, irradiated” value ([3]; irradiated with light)?
**A.** 65%

**Q.** And the “Sudan Orange G yield, non-irradiated” value ([3]; non-irradiated reaction)?
**A.** 4%

**Q.** And the “pH of solution upon exposure to 350 nm light” value [4]?
**A.** ~10

**Q.** What about the “Degradation with excess acetic acid in DMSO” value ([5]; 14 hours, room temperature, no light) of the same compound?
**A.** 12%

**Q.** What about the “Degradation with acetic acid in DMSO upon irradiation” value ([5]; irradiation with light, same time frame (14 hours)) of the same compound?
**A.** completely fell apart

**Q.** And the “Rate of first-order thermal isomerization” value [6]?
**A.** 3e-05 s⁻¹

**Q.** And the “Solubility in organic solvents” value [7]?
**A.** limited solubility in all but DMSO

**Q.** With `Cc1cc(C)c(-n2ccn(CCCS(=O)(=O)O)c2=NN=Nc2ccc3c(C(F)(F)F)cc(=O)oc3c2)c(C)c1` [Compound 53] as the compound, how does the “Labeling of BSA” value [8] read?
**A.** labeled in a pH dependent manner

**Q.** For `N#[N+]c1ccccc1` [benzenediazonium], which “Half-life of first-order degradation to phenol” value [9] is on record?
**A.** ~4 h
